In brackets after ≈: the same amount, converted by molar mass. Read-outs that look alike come from different tables or passages of the source.
Tests used:
[1] = tested on: Staphylococcus aureus 45 RAR 2; assay: microbe, parasite or virus in culture; format: cell-based; details: 45RAR2
Procedure: (§1) The antimicrobial spectra of a number of compounds of the invention were tested by the following method:
(§2) Twelve petri dishes containing successive aqueous dilutions of the test compound mixed with 10 ml of sterilized Brain Heart Infusion agar (Difco 0418-01-5) are prepared. Each plate is inoculated with 1:100 (or 1:10 for slow growing strains, primarily Micrococcus and Streptococcus) dilutions of up to 32 different microorganisms, using a Steers replicator block The inoculated plates are incubated at 35°-37° C. for 20-24 hours. In addition, a control plate, using BHI agar containing no test compound, is prepared and incubated at the beginning and end of each test.
(§3) An additional plate containing a compound having known susceptibility patterns for the organisms being tested and belonging to the same antibiotic class as the test compound is also prepared and incubated as a further control, as well as to provide test-to-test comparability. Erythromycin A was used for this purpose.
(§4) After incubation, each disk is read. The MIC is defined as the lowest concentration of drug yielding no growth, a slight haze, or sparsely isolated colonies on the inoculum spot as compared to the growth control.

[2] = tested on: Streptococcus agalactiae CMX 508; assay: In vitro antibacterial activity, agar dilution MIC; format: cell-based; details: CMX508, S. agalactiae CMX 508, Brain Heart Infusion agar, 20-24 hours, read-out: MIC
Procedure: as §1, §2, §3, §4

[3] = tested on: Streptococcus pyogenes 2548 INDUC; assay: In vitro antibacterial activity, agar dilution MIC; format: cell-based; details: S. pyogenes 2548 INDUC, Brain Heart Infusion agar, 20-24 hours, read-out: MIC
Procedure: as §1, §2, §3, §4

Staphylococcus aureus 45 = assay: In vitro antibacterial activity, agar dilution MIC; format: cell-based
Procedure: as §1, §2, §3, §4

Escherichia coli H560 = assay: In vitro antibacterial activity, agar dilution MIC; format: cell-based; details: E. coli H560, Brain Heart Infusion agar, 20-24 hours, read-out: MIC
Procedure: as §1, §2, §3, §4

[4] = tested on: Staphylococcus aureus CMX 553; assay: In vitro antibacterial activity, agar dilution MIC; format: cell-based; details: CMX553, S. aureus CMX 553, Brain Heart Infusion agar, 20-24 hours, read-out: MIC
Procedure: as §1, §2, §3, §4

Escherichia coli SS = assay: In vitro antibacterial activity, agar dilution MIC; format: cell-based; details: read-out: MIC
Procedure: as §1, §2, §3, §4

[5] = tested on: Micrococcus luteus ATCC 9341; assay: In vitro antibacterial activity, agar dilution MIC; format: cell-based; details: ATCC9341, M. luteus ATCC 9341, Brain Heart Infusion agar, 20-24 hours, read-out: MIC
Procedure: as §1, §2, §3, §4

Escherichia coli Juhl = assay: In vitro antibacterial activity, agar dilution MIC; format: cell-based
Procedure: as §1, §2, §3, §4

[6] = tested on: Staphylococcus aureus ATCC 6538P; assay: In vitro antibacterial activity, agar dilution MIC; format: cell-based; details: ATCC6538P, S. aureus ATCC 6538P, Brain Heart Infusion agar, 35-37° C., 20-24 hours, read-out: MIC
Procedure: as §1, §2, §3, §4

[7] = tested on: Micrococcus luteus ATCC 4698; assay: In vitro antibacterial activity, agar dilution MIC; format: cell-based
Procedure: as §1, §2, §3, §4

[8] = tested on: Staphylococcus aureus A5177; assay: In vitro antibacterial activity, agar dilution MIC; format: cell-based; details: S. aureus A5177, Brain Heart Infusion agar, 20-24 hours, read-out: MIC
Procedure: as §1, §2, §3, §4

[9] = tested on: Staphylococcus aureus CMX 503A; assay: In vitro antibacterial activity, agar dilution MIC; format: cell-based; details: CMX503A, S. aureus CMX 503A, Brain Heart Infusion agar, 20-24 hours, read-out: MIC
Procedure: as §1, §2, §3, §4

Escherichia coli DC-2 = assay: In vitro antibacterial activity, agar dilution MIC; format: cell-based
Procedure: as §1, §2, §3, §4

[10] = tested on: Streptococcus bovis A5169; assay: In vitro antibacterial activity, agar dilution MIC; format: cell-based; details: read-out: MIC
Procedure: as §1, §2, §3, §4

[11] = tested on: Staphylococcus epidermidis 3519; assay: In vitro antibacterial activity, agar dilution MIC; format: cell-based; details: S. epidermidis 3519, Brain Heart Infusion agar, 20-24 hours, read-out: MIC
Procedure: as §1, §2, §3, §4

[12] = tested on: Streptococcus pyogenes 930 CONST; assay: In vitro antibacterial activity, agar dilution MIC; format: cell-based; details: 930CONST
Procedure: as §1, §2, §3, §4

[13] = tested on: Staphylococcus aureus CMX 686B; assay: In vitro antibacterial activity, agar dilution MIC; format: cell-based; details: CMX686B, S. aureus CMX 686B, Brain Heart Infusion agar, 20-24 hours, read-out: MIC
Procedure: as §1, §2, §3, §4

[14] = tested on: Enterococcus faecium ATCC 8043; assay: In vitro antibacterial activity, agar dilution MIC; format: cell-based; details: ATCC8043, read-out: MIC
Procedure: as §1, §2, §3, §4

[15] = tested on: Streptococcus pyogenes EES61; assay: In vitro antibacterial activity, agar dilution MIC; format: cell-based; details: S. pyogenes EES61, Brain Heart Infusion agar, 20-24 hours, read-out: MIC
Procedure: as §1, §2, §3, §4

[16] = tested on: Streptococcus pyogenes C-203; assay: In-vivo mouse protection assay (acute mouse protection test); parameters: species or system Swiss albino mice
Procedure: (§5) The acute mouse protection test is conducted on ten mice with each of three levels of drug. Mouse mortality is used to calculate an ED50 value, i.e., the dose of drug required to protect 50% of the test animals against death due to the inoculum challenge.
(§6) The acute mouse protection test is conducted on female, Swiss albino mice, 18-20 grams in weight. […] To check the potency of the inoculum, a titration of the indicated test organism is carried out in control animals. The treatment group of animals is dosed with the test compound at 1 and 5 hours post infection and observed for 7 days. The ED50 values are calculated using the mortality data collected.

[17] = tested on: Streptococcus pneumoniae (6303); assay: as above; parameters: species or system Swiss albino mice; details: 168 h
Procedure: as §5, §6

[18] = tested on: Staphylococcus aureus (NCTC 10649); assay: as above; parameters: species or system Swiss albino mice
Procedure: as §5, §6

[19] = tested on: Staphylococcus aureus NCTC 10649; assay: In vitro antibacterial activity, agar dilution MIC; format: cell-based; details: NCTC10649, S. aureus NCTC 10649, Brain Heart Infusion agar, 20-24 hours, read-out: MIC
Procedure: as §1, §2, §3, §4

[20] = tested on: Staphylococcus aureus 642A; assay: In vitro antibacterial activity, agar dilution MIC; format: cell-based; details: S. aureus 642A, Brain Heart Infusion agar, 20-24 hours, read-out: MIC
Procedure: as §1, §2, §3, §4

`CC[C@H]1OC(=O)[C@H](C)[C@@H](O[C@H]2C[C@@](C)(OC)[C@@H](N)[C@H](C)O2)[C@H](C)[C@@H](O[C@@H]2O[C@H](C)C[C@H](N(C)C)[C@H]2O)[C@](C)(O)C[C@@H](C)[C@@H](N2CCCCC2)[C@H](C)[C@@H](O)[C@]1(C)O` [Example 31] gave an MIC [1] of 0.78 µg/mL (≈ 0.972 µM), an MIC [2] of 0.05 µg/mL (≈ 0.0623 µM) and an MIC [3] of 6.2 µg/mL (≈ 7.73 µM). The MIC (Staphylococcus aureus 45; 45) was 0.39 µg/mL (≈ 0.486 µM), the MIC (Escherichia coli H560) was 1.56 µg/mL (≈ 1.94 µM) and the MIC [4] was 0.39 µg/mL (≈ 0.486 µM). The MIC (Escherichia coli SS) was 0.2 µg/mL (≈ 0.249 µM), the MIC [5] was 0.05 µg/mL (≈ 0.0623 µM) and the MIC (Escherichia coli Juhl) was 6.2 µg/mL (≈ 7.73 µM). It also gave an MIC [6] of 0.78 µg/mL (≈ 0.972 µM), an MIC ([7]; ATCC4698) of 0.39 µg/mL (≈ 0.486 µM) and an MIC [8] of 6.2 µg/mL (≈ 7.73 µM). The MIC [9] was 0.78 µg/mL (≈ 0.972 µM), the MIC (Escherichia coli DC-2; DC2, E. coli DC-2, Brain Heart Infusion agar, 20-24 hours, read-out: MIC) was 3.1 µg/mL (≈ 3.86 µM) and the MIC [10] was 0.02 µg/mL (≈ 0.0249 µM). The MIC [11] was 0.78 µg/mL (≈ 0.972 µM), the MIC [12] was over 100 µg/mL and the MIC [13] was 0.39 µg/mL (≈ 0.486 µM). For the same molecule, the MIC [14] was 0.2 µg/mL (≈ 0.249 µM), the MIC [15] was 0.05 µg/mL (≈ 0.0623 µM) and the ED50 ([16]; C203, 168 h, Oral, S. pyogenes C-203, dosed 1 and 5 hours post infection, 7 days, read-out: ED50) was 27.9 mg/kg. For the same molecule, the ED50 ([16]; C203, sc, 168 h, Subcutaneous, S. pyogenes C-203, dosed 1 and 5 hours post infection, 7 days, read-out: ED50) was 0.8 mg/kg, the ED50 ([17]; po) was 13.8 mg/kg and the ED50 ([17]; sc, Subcutaneous, S. pneumoniae 6303, dosed 1 and 5 hours post infection, 7 days, read-out: ED50) was 1 mg/kg. The ED50 ([18]; NCTC10649, 168 h, Oral, S. aureus NCTC 10649, dosed 1 and 5 hours post infection, 7 days, read-out: ED50) was 125 mg/kg and the ED50 ([18]; NCTC10649, sc, 168 h, Subcutaneous, S. aureus NCTC 10649, dosed 1 and 5 hours post infection, 7 days, read-out: ED50) was 25.7 mg/kg.

`CC[C@H]1OC(=O)[C@H](C)[C@@H](O[C@H]2C[C@@](C)(OC)[C@H](N)[C@H](C)O2)[C@H](C)[C@@H](O[C@@H]2O[C@H](C)C[C@H](N(C)C)[C@H]2O)[C@](C)(O)C[C@@H](C)[C@@H](N2CCCCC2)[C@H](C)[C@@H](O)[C@]1(C)O` [Example 32] was tested, and the MIC [1] was 1.56 µg/mL (≈ 1.94 µM), the MIC [2] was 0.1 µg/mL (≈ 0.125 µM) and the MIC [3] was 6.2 µg/mL (≈ 7.73 µM). The MIC (Staphylococcus aureus 45; S. aureus 45, Brain Heart Infusion agar, 20-24 hours, read-out: MIC) was 0.78 µg/mL (≈ 0.972 µM), the MIC (Escherichia coli H560) was 3.1 µg/mL (≈ 3.86 µM) and the MIC [4] was 0.78 µg/mL (≈ 0.972 µM). For the same molecule, the MIC (Escherichia coli SS) was 0.2 µg/mL (≈ 0.249 µM), the MIC [5] was 0.05 µg/mL (≈ 0.0623 µM) and the MIC (Escherichia coli Juhl) was 25 µg/mL (≈ 31.2 µM). It also gave an MIC [6] of 0.78 µg/mL (≈ 0.972 µM), an MIC ([7]; ATCC4698, M. luteus ATCC 4698, Brain Heart Infusion agar, 20-24 hours, read-out: MIC) of 0.78 µg/mL (≈ 0.972 µM) and an MIC [8] of 6.2 µg/mL (≈ 7.73 µM). The MIC [9] was 0.39 µg/mL (≈ 0.486 µM), the MIC (Escherichia coli DC-2; DC2) was 12.5 µg/mL (≈ 15.6 µM) and the MIC [10] was 0.02 µg/mL (≈ 0.0249 µM). For the same molecule, the MIC [11] was 0.78 µg/mL (≈ 0.972 µM), the MIC [12] was over 100 µg/mL and the MIC [13] was 0.78 µg/mL (≈ 0.972 µM). It also gave an MIC [14] of 0.2 µg/mL (≈ 0.249 µM), an MIC [19] of 1.56 µg/mL (≈ 1.94 µM) and an MIC [20] of 1.56 µg/mL (≈ 1.94 µM). It also gave an MIC [15] of 0.1 µg/mL (≈ 0.125 µM).

`CC[C@H]1OC(=O)[C@H](C)[C@@H](O[C@H]2C[C@@](C)(OC)[C@@H](O)[C@H](C)O2)[C@H](C)[C@@H](O[C@@H]2O[C@H](C)C[C@H](N(C)C)[C@H]2O)[C@](C)(O)C[C@@H](C)C(=O)[C@H](C)[C@@H](O)[C@]1(C)O` [erythromycin] was tested, and the ED50 ([16]; C203, po, 168 h) was 12 mg/kg, the ED50 ([16]; C203, sc, 168 h) was 1.8 mg/kg and the ED50 ([17]; po) was 21.5 mg/kg. For the same molecule, the ED50 ([17]; sc) was 0.9 mg/kg, the ED50 ([18]; NCTC10649, po, 168 h) was 98 mg/kg and the ED50 ([18]; NCTC10649, sc, 168 h) was 20 mg/kg.

— US5075289A, “9-R-azacyclic erythromycin antibiotics” (priority 1988, dated 1991)
